Data as given in patent US20200306210A1 (ZOGENIX INTERNATIONAL LIMITED, priority 2017, published 2020).
Counter-ions that a name gives are not always drawn.

System: children and young adults with Dravet syndrome
Assay: Study 1: randomized, double-blind, placebo-controlled trial of ZX008, monthly convulsive seizure frequency (MCSF)
Format: in vivo, Human
Conditions: for Longest seizure free interval, estimate of median treatment difference: Hodges-Lehman estimator; for Greater reduction in mean MCSF compared with placebo: 14-week treatment period; for Near-seizure freedom (0 or a single seizure during 14-week Treatment Period), % of subjects / Near-seizure freedom (0 or a single seizure during 14-week Treatment Period), number of subjects: post-hoc analysis
Text: Human patients, age 2 to 18 years, inclusive, having a documented medical history to support a clinical diagnosis of Dravet syndrome and a history of seizures (either generalized tonic-clonic or unilateral clonic or bilateral clonic, and prolonged) were recruited, and selected for inclusion in the study according to criteria comprising a combination of age, physical and psychological characteristics, and (optionally) resistance to treatment with conventional therapies. Included subjects were assessed over the course of this 22-week study. The study protocols were reviewed and approved by the institutional review board or ethics committee for each study site before any study activation at the site. All patients or their legal representatives signed informed consent/assent prior to enrolling in the trial.
Subjects had ≥4 convulsive seizures (tonic, tonic atonic, tonic-clonic, clonic) per 4-week period for past 12 weeks prior to screening, by parent/guardian report to investigator or investigator medical notes.
Potential subjects enrolled in a 6-week baseline to establish seizure frequency and determine eligibility. Seizures were documented by parents or caregivers in an electronic study diary as to date, time of day, duration, and seizure type. To qualify for randomization each subject must have had ≥6 convulsive seizures during the baseline period with ≥2 in the first 3 weeks and ≥2 in the last 3 weeks. For this study convulsive seizures were defined as hemiclonic, tonic, clonic, tonic-atonic, generalized tonic-clonic, and focal with clear observable motor signs. The six-week Baseline Period started with a screening visit followed by an observation period where subjects were assessed for baseline seizure activity based on recordings of daily seizure activity entered into the diary.
Randomization was double-blind and stratified by age group (<6 years, ≥6 years) across treatment groups. A placebo solution, identical in appearance and taste, was also provided. Daily doses were administered with food in 2 equal doses, one in the morning and one in the evening approximately 12 hours apart. […] The other groups underwent dummy titrations to maintain the blind. Patients were maintained on their final dose for an additional 12 weeks (the Maintenance Period). At the conclusion of the Treatment Period (Titration plus Maintenance), eligible patients electing to continue in an optional open-label extension (OLE) study underwent a 2-week transition period, whereas patients exiting the study underwent a 2-week taper and follow-up.
ZX008 was supplied as an oral solution in concentrations of 1.25, 2.5, and 5 mg/mL. Subjects will be randomized to receive 1 of 2 doses of ZX008 (0.2 mg/kg/day, 0.8 mg/kg/day; up to 30 mg/day) or placebo. Study medication will be administered twice a day (BID) in equally divided doses with food. To the placebo group, as a negative control, an oral solution not containing fenfluramine was administered.
Monthly convulsive seizure frequency (MCSF) was expressed per 28 days. The primary end point was the change in mean MCSF) between the baseline period and the combined titration and maintenance periods in subjects treated with ZX008 0.8 mg/kg/day compared with the group treated with placebo. Five key secondary end points were pre-specified: the comparison of the ZX008 0.2 mg/kg/day group with placebo for the change in MCSF between baseline and the combined titration and maintenance periods, comparison of both ZX008 groups independently with placebo on the proportion of subjects who achieved a ≥50% reduction from baseline in MCSF and the comparison of both ZX008 groups with placebo on the longest seizure-free interval observed in each group. A serial gatekeeping procedure was used to maintain the simultaneous type 1 error rate at α=0.05 across the analyses of the primary and 5 key secondary end points. […]

Q: CCNC(C)Cc1cccc(C(F)(F)F)c1 (stereo not shown) [ZX008, fenfluramine hydrochloride] was tested. Which “Longest seizure free interval, estimate of median treatment difference” value (0.2 mg/kg/day vs placebo) did it give?
A: The value was -5.0 days.

Q: What about the “Greater reduction in mean MCSF compared with placebo” value (0.2 mg/kg/day) of the same compound?
A: Its value is 33.7%.

Q: And the “Reduction from baseline in mean MCSF” value (0.2 mg/kg/day, after 6 weeks of treatment)?
A: Its value is −26.3%.

Q: And the “Reduction from baseline in mean MCSF” value (0.2 mg/kg/day, after 10 weeks of treatment)?
A: The value was −22.4%.

Q: What about the “Reduction from baseline in mean MCSF” value (0.2 mg/kg/day, after 14 weeks of treatment) of the same compound?
A: The value was −22.2%.

Q: What about the “100% reduction (seizure freedom during entire 14-week treatment period), n of subjects” value (0.2 mg/kg/day, n = 39) of the same compound?
A: The value was 3.

Q: And the “Longest seizure free interval, median” value (0.2 mg/kg/day, n = 39)?
A: Its value is 14 days.

Q: And the “Percent change in convulsive seizure frequency per 28 days, LS means ± SE” value (0.2 mg/kg/day, n = 39)?
A: The value was −22.50 ± 9.28%.

Q: And the “Percent change in convulsive seizure frequency per 28 days, median” value (0.2 mg/kg/day, n = 39)?
A: The value was −37.6%.

Q: And the “Responder analysis ≥25% reduction in MCSF, % of subjects” value (0.2 mg/kg/day, n = 39)?
A: Its value is “(61.5%)”.

Q: What about the “Responder analysis ≥25% reduction in MCSF, OR vs placebo” value (0.2 mg/kg/day, n = 39) of the same compound?
A: Its value is 3.80.

Q: And the “Responder analysis ≥25% reduction in MCSF, n of subjects” value (0.2 mg/kg/day, n = 39)?
A: Its value is 24.

Q: What about the “Responder analysis ≥50% reduction in MCSF, % of subjects” value (0.2 mg/kg/day, n = 39) of the same compound?
A: The value was “(41.0%)”.

Q: And the “Responder analysis ≥50% reduction in MCSF, OR vs placebo” value (0.2 mg/kg/day, n = 39)?
A: The value was 10.10.

Q: And the “Responder analysis ≥50% reduction in MCSF, n of subjects” value (0.2 mg/kg/day, n = 39)?
A: Its value is 16.

Q: What about the “Responder analysis ≥75% reduction in MCSF, % of subjects” value (0.2 mg/kg/day, n = 39) of the same compound?
A: The value was “(20.5%)”.

Q: What about the “Responder analysis ≥75% reduction in MCSF, OR vs placebo” value (0.2 mg/kg/day, n = 39) of the same compound?
A: The value was 10.46.

Q: And the “Responder analysis ≥75% reduction in MCSF, n of subjects” value (0.2 mg/kg/day, n = 39)?
A: Its value is 8.

Q: And the “Change in convulsive seizure frequency per 28 days, % Difference from placebo, LS mean (key secondary endpoint)” value (0.2 mg/kg/day, n = 39, baseline vs titration + maintenance)?
A: Its value is −33.74%.

Q: What about the “Near-seizure freedom (0 or a single seizure during 14-week Treatment Period), % of subjects” value (0.2 mg/kg/day) of the same compound?
A: The value was 12.8%.

Q: And the “Near-seizure freedom (0 or a single seizure during 14-week Treatment Period), number of subjects” value (0.2 mg/kg/day)?
A: Its value is 5.

Q: What about the “Longest seizure free interval, estimate of median treatment difference” value (0.8 mg/kg/day vs placebo) of the same compound?
A: Its value is -11.5 days.

Q: What about the “Greater reduction in mean MCSF compared with placebo” value (0.8 mg/kg/day) of the same compound?
A: Its value is 63.9%.

Q: And the “Reduction from baseline in mean MCSF” value (0.8 mg/kg/day, after 6 weeks of treatment)?
A: The value was −62.4%.

Q: And the “Reduction from baseline in mean MCSF” value (0.8 mg/kg/day, after 10 weeks of treatment)?
A: Its value is −61.8%.

Q: And the “Reduction from baseline in mean MCSF” value (0.8 mg/kg/day, after 14 weeks of treatment)?
A: Its value is −62.2%.

Q: And the “100% reduction (seizure freedom during entire 14-week treatment period), n of subjects” value (0.8 mg/kg/day, n = 40)?
A: The value was 3.

Q: And the “Longest seizure free interval, median” value (0.8 mg/kg/day, n = 40)?
A: The value was 20.5 days.

Q: And the “Percent change in convulsive seizure frequency per 28 days, median” value (0.8 mg/kg/day, n = 40)?
A: Its value is −72.4%.

Q: What about the “Responder analysis ≥25% reduction in MCSF, % of subjects” value (0.8 mg/kg/day, n = 40) of the same compound?
A: The value was “(92.5%)”.

Q: What about the “Responder analysis ≥25% reduction in MCSF, OR vs placebo” value (0.8 mg/kg/day, n = 40) of the same compound?
A: Its value is 42.91.

Q: What about the “Responder analysis ≥25% reduction in MCSF, n of subjects” value (0.8 mg/kg/day, n = 40) of the same compound?
A: Its value is 37.

Q: And the “Responder analysis ≥50% reduction in MCSF, % of subjects” value (0.8 mg/kg/day, n = 40)?
A: The value was “(70.0%)”.

Q: What about the “Responder analysis ≥50% reduction in MCSF, OR vs placebo” value (0.8 mg/kg/day, n = 40) of the same compound?
A: The value was 29.10.

Q: What about the “Responder analysis ≥50% reduction in MCSF, n of subjects” value (0.8 mg/kg/day, n = 40) of the same compound?
A: The value was 28.

Q: What about the “Responder analysis ≥75% reduction in MCSF, OR vs placebo” value (0.8 mg/kg/day, n = 40) of the same compound?
A: The value was 49.49.

Q: And the “Responder analysis ≥75% reduction in MCSF, n of subjects” value (0.8 mg/kg/day, n = 40)?
A: Its value is 18.

Q: What about the “Change in convulsive seizure frequency per 28 days, % Difference from placebo, LS mean (primary endpoint)” value (0.8 mg/kg/day, n = 40, baseline vs titration + maintenance) of the same compound?
A: The value was −63.89%.

Q: And the “Near-seizure freedom (0 or a single seizure during 14-week Treatment Period), % of subjects” value (0.8 mg/kg/day)?
A: The value was 25%.

Q: What about the “Near-seizure freedom (0 or a single seizure during 14-week Treatment Period), number of subjects” value (0.8 mg/kg/day) of the same compound?
A: Its value is 10.
